Series [1] is described as follows: clinical. To be noted: in vivo. How it is done:
(§1) Six healthy, non-obese, fasting subjects each received, on different days 0, 6, 12.5, 25 or 50 g of glucose (Glucola) in a total volume of 100 ml.
Following a protocol approved by the Massachusetts Institute of Technology Committee on the Use of Humans as Experimental Subjects, 6 healthy volunteer outpatients, aged 25-33 years, participated in the study; 3 were males and 3 females. Mean weight was 60 kg for the women and 70 for the men; all subjects were within 10% of their ideal body weight as determined by Metropolitan Life Insurance Company tables. […] Subjects were asked to take meals rich in carbohydrate content (about 300 g/day) for 3 days before beginning the study. On 5 separate days, each subject fasted from 8 p.m. until 9 the next morning and then received a load of 0, 6, 12.5, 25 or 50 g of glucose (caffeine-free glucola) dissolved in water in a total volume of 100 ml; the order of doses was randomized. […] Blood was collected in heparanized tubes; after centrifugation plasma was stored at -20° C. until analyzed. […] Glucose was analyzed spectrophotometrically after reaction with O-toluidine in hot acidic acid (Sigma Bulletin #635;15). Insulin was measured using a commercial radioimmunoassay kit by a double antibody method (Bio-RIA, Louisville, Ky.). Plasma tryptophan was measured fluorometrically on 20 μl plasma aliquots by the method of Denckla and Dewey, J. Lab. […] Branched-chain amino acids and aromatic amino acids were measured in 500 μl aliquots of plasma, deproteinized with sulfosalicylic acid, using a Beckman amino acid analyzer (Beckman Instruments, Palo Alto, Calif., Model 119C).
Data, given as means ±SE errors, were analyzed by two-way analysis of variance; factors compared were dose and time. […] Areas under the curves were evaluated by the method of trapezoid approximation. […] Amino acid concentrations after treatments for each subject were also expressed as a percentage of that day's pretreatment levels; mean percent changes were then calculated for each treatment and time interval.

Series [2] can be described thus: Plasma insulin after glucose ingestion, radioimmunoassay (Example I). Format: in vivo, human. How it is done: as §1
Following a protocol approved by the Massachusetts Institute of Technology Committee on the Use of Humans as Experimental Subjects, 6 healthy volunteer outpatients, aged 25-33 years, participated in the study; 3 were males and 3 females. Mean weight was 60 kg for the women and 70 for the men; all subjects were within 10% of their ideal body weight as determined by Metropolitan Life Insurance Company tables. […] Subjects were asked to take meals rich in carbohydrate content (about 300 g/day) for 3 days before beginning the study. On 5 separate days, each subject fasted from 8 p.m. until 9 the next morning and then received a load of 0, 6, 12.5, 25 or 50 g of glucose (caffeine-free glucola) dissolved in water in a total volume of 100 ml; the order of doses was randomized. Venous blood samples were drawn from the antecubital vein through an indwelling catheter at 0, 60 and 120 min for all doses and additionally at 30 and 180 min for the 12.5, 25 and 50 g doses. Blood was collected in heparanized tubes; after centrifugation plasma was stored at -20° C. until analyzed. […] Glucose was analyzed spectrophotometrically after reaction with O-toluidine in hot acidic acid (Sigma Bulletin #635;15). Insulin was measured using a commercial radioimmunoassay kit by a double antibody method (Bio-RIA, Louisville, Ky.). Plasma tryptophan was measured fluorometrically on 20 μl plasma aliquots by the method of Denckla and Dewey, J. Lab. Clin. Med. 69: 160-169, 1967, as modified by Lehman, Scand. J. Clin. Lab. Invest. 28: 49-55, 1971. Branched-chain amino acids and aromatic amino acids were measured in 500 μl aliquots of plasma, deproteinized with sulfosalicylic acid, using a Beckman amino acid analyzer (Beckman Instruments, Palo Alto, Calif., Model 119C).
Data, given as means ±SE errors, were analyzed by two-way analysis of variance; factors compared were dose and time. The Scheffe test was employed to test the statistical significance of differences; p<0.05 was considered significant. Areas under the curves were evaluated by the method of trapezoid approximation. Student tests for paired data were used to evaluate the significance of changes in individual amino acids. Amino acid concentrations after treatments for each subject were also expressed as a percentage of that day's pretreatment levels; mean percent changes were then calculated for each treatment and time interval.

SMILES strings stand for the structures.

These results are taken from patent US4542123A (Massachusetts Institute of Technology, priority 1982, dated 1985).

For the compound `O=C[C@H](O)[C@@H](O)[C@H](O)[C@H](O)CO` [Glucose, glucose], in series [1] (human), the “Mean plasma glucose concentration” value is reported as 83±2.2 mg %. Moreover, the concentration at 0.5 h in series [1] (human, po, Mean plasma glucose concentration) was found to be 1050 ± 86 µg/mL. The “Time for plasma glucose to return to baseline” value in series [1] lay within 60 to 120 min. In addition, in series [2] (50 g vs 25 g glucose), the “Elevation in insulin, 50-g vs 25-g dose” value is on record as “greater elevation in insulin than the 25-g dose in 4 of the 6 subjects”. Besides, the Insulin levels result in series [2] (30 min after 12.5, 25 or 50 g of glucose) was “significantly elevated”. Moreover, the Mean insulin concentration in series [2] (before ingestion (baseline)) turned out to be 9±0.9 μU/ml; in series [2] (glucose 12.5 g, 30 min) it was 21.3±3.8 μU/ml; in series [2] (glucose 25 g, 30 min), 44±5.0 μU/ml; in series [2] (glucose 50 g, 30 min), 58±6.9 μU/ml.
